Values quoted from earlier work in patent publication US20210023023A1, “LIPOSOMAL NUTRACEUTICAL COMPOSITIONS AND METHODS OF MAKING THE SAME” (VASAYO, LLC, priority 2019, published 2021).

Conditions: in studies

## C=C(C)[C@@H]1CCC(C)=C[C@H]1c1c(O)cc(CCCCC)cc1O [CBD, cannabidiol]
  anti-inflammatory effects, potency relative to aspirin: several hundred times more potent than aspirin
